# US20030108576A1, “Composition” (Colgate-Palmolive Company, priority 2001, published 2003)
# Test: Vitamin E stability aging of the compositions in clear PET packaging
# Assay type: physicochemical
# Method: Samples of each example are put on stability aging using clear PET packaging at room temperature, 77° F.; high temperature, 110° F.; and in the window for natural sunlight exposure. Samples are evaluated for vitamin content initially, then again at 4,8, and 13 weeks. Below are the results.
smiles,measurement,setting,value
CC(C)(C)c1cc(O)ccc1O [2-tertiary butyl hydroquinone],retention of vitamin E compared with other antioxidants,77° F. and 110° F.,essentially equivalent to the other antioxidants
same,retention of vitamin E in sunlight compared with other test antioxidants,sunlight,substantially more retention of vitamin E in sunlight than any of the other test antioxidants
